What was measured:
Sarcoma 180 [1] = assay: Antitumor activity, solid Sarcoma 180 (Table I), T/C tumor weight ratio, sacrifice day 10; assay type: in vivo, female Swiss white mice
Description: The compounds of the invention were tested for anti-tumor activity using our standard screening tumor, solid sarcoma 180 tumer in female Swiss white mice, following standard protocols for this testing as set by the National Cancer Institute. (Cancer Chemotherapy Rep., 25(1962)).
For these tests an S 180 tumor taken from a sacrificed mouse was disected free of superfluous tissue and cut under sterile conditions into approximately 10 milligram size pieces. These tissue pieces were then implanted by trocar in the left axillary region, subcutaneously, in new mice. The mice were, on the average, approximately four weeks old and weighed 18-20 grams. Taking day 0 as the day of implant, the animals were sacrificed on day 10. The tumors were excised and weighed and the ratio of the weights of the tumors in mice in the treated animals to the control set of animals was obtained. This ratio, multiplied by 100, is given as the T/C ratio in Table I.
For the first set of tests the coordination compound was freshly dissolved in sterile distilled water and injected intraperitoneally on day 1 into each of the test mice. The volume of the injection was usually 1/2 ml. In some cases, in order to get an active dose into the animal where the chemical was not soluble in this amount of solvent, a fine dispersion was prepared of the dose needed for the test. Thus, some of our test results were obtained on animals where a slurry of the compound was injected. These are so noted in Table I below. In addition, for some of the compounds, there was injected about 1 ml of solution, either in one single injection, or in 2 injections given a few hours apart of 1/2 ml each. These injections were initially given in 4 different dose levels for each new compound with 6 mice in each dose level. The tests covered a dose range from a low ineffective dose, to an upper dose level which produced some deaths within the time period of the experiment.

Sarcoma 180 [2] = assay: Large Sarcoma 180 regressions (Table II), injection day 8, observed approximately 60 days; assay type: in vivo, female Swiss white mice; details: single i.p. day 8, H2O solution
Description: In addition to the day 1 injections described above, in a number of cases injections were delayed until day 8 of tumor growth. In these cases the tumor was usually at least larger than 1/2 gm, as estimated by palpation. The animals were then injected and observed for a period of approximately 60 days. Activity was measured by the number of animals whose tumors had regressed to the vanishing point, while still allowing the animal to survive for this time period. Such test results are described in TABLE II below.

[3] = test system: Walker 256 Carcinosarcoma; assay: Confirmatory antitumor activity, Walker 256 Carcinosarcoma (Table III); assay type: in vivo, Rat; details: single injection day 1 in oil, i.p.
Description: Confirmatory tests of antitumor activity against the Walker 256 Circinosarcoma in rats, and the ADJ/PC6A tumor in mice were conducted. The initial test results are shown in Table III and confirm the potent action of the compounds of the invention against these other tumor systems.

[4] = Hydrolysis by U.V./vis spectral and conductivity studies; assay type: physicochemical
Source text: *U.V./via spectral and conductivity studies have shown that hydrolysis is negligible.

[5] = 4 mg/kg, i.p. daily for days 1-10, solution in H2O
[6] = 5 mg/kg, i.p. daily for days 1-10, solution in H2O
[7] = 6 mg/kg, i.p. daily for days 1-10, solution in H2O
[8] = 7 mg/kg, i.p. daily for days 1-10, solution in H2O
[9] = 10 mg/kg, single i.p. day 1, slurry in H2O
[10] = 15 mg/kg, single i.p. day 1, slurry in H2O
[11] = 20 mg/kg, single i.p. day 1, slurry in H2O
[12] = 25 mg/kg, single i.p. day 1, slurry in H2O
[13] = 30 mg/kg, single i.p. day 1, slurry in H2O
[14] = 50 mg/kg, single i.p. day 1, slurry in H2O

Q: Which “No. of Deaths” value (Sarcoma 180 [1]; [5]) does the source give for O=C(O)CC(=O)O.[NH2-].[NH2-].[Pt+2] [Malonatodiammineplatinum(II)] here?
A: 0

Q: What about the T/C (Sarcoma 180 [1]; [5]) of the same molecule?
A: 54

Q: And the “No. of Deaths” value (Sarcoma 180 [1]; [6])?
A: 0

Q: And the T/C (Sarcoma 180 [1]; [6])?
A: 56

Q: What about the “No. of Deaths” value (Sarcoma 180 [1]; [7]) of the same molecule?
A: 0

Q: What about the T/C (Sarcoma 180 [1]; [7]) of the same molecule?
A: 23

Q: And the “No. of Deaths” value (Sarcoma 180 [1]; [8])?
A: 0

Q: And the T/C (Sarcoma 180 [1]; [8])?
A: 12

Q: What about the “No. of Deaths” value (Sarcoma 180 [1]; [9]) of the same molecule?
A: 0

Q: And the T/C (Sarcoma 180 [1]; [9])?
A: 76

Q: And the “No. of Deaths” value (Sarcoma 180 [1]; [10])?
A: 0

Q: What about the T/C (Sarcoma 180 [1]; [10]) of the same molecule?
A: 38

Q: What about the “No. of Deaths” value (Sarcoma 180 [1]; [11]) of the same molecule?
A: 0

Q: What about the T/C (Sarcoma 180 [1]; [11]) of the same molecule?
A: 64

Q: And the “No. of Deaths” value (Sarcoma 180 [1]; [12])?
A: 0

Q: What about the T/C (Sarcoma 180 [1]; [12]) of the same molecule?
A: 31

Q: And the “No. of Deaths” value (Sarcoma 180 [1]; [13])?
A: 1/6

Q: And the T/C (Sarcoma 180 [1]; [13])?
A: 7

Q: What about the “No. of Deaths” value (Sarcoma 180 [1]; 40 mg/kg, single i.p. day 1, slurry in H2O) of the same molecule?
A: 6/6

Q: And the “No. of Deaths” value (Sarcoma 180 [1]; [14])?
A: 5/6

Q: And the T/C (Sarcoma 180 [1]; [14])?
A: 1

Q: What about the “No. of Deaths” value (Sarcoma 180 [1]; 60 mg/kg, single i.p. day 1, slurry in H2O) of the same molecule?
A: 6/6

Q: What about the Deaths (Sarcoma 180 [2]; 14 mg/kg) of the same molecule?
A: 4

Q: What about the “Total Number of Regressions” value (Sarcoma 180 [2]; 14 mg/kg) of the same molecule?
A: 2

Q: And the Deaths (Sarcoma 180 [2]; 16 mg/kg)?
A: 3

Q: And the “Total Number of Regressions” value (Sarcoma 180 [2]; 16 mg/kg)?
A: 3

Q: What about the Deaths (Sarcoma 180 [2]; 18 mg/kg) of the same molecule?
A: 2

Q: And the “Total Number of Regressions” value (Sarcoma 180 [2]; 18 mg/kg)?
A: 4

Q: And the Deaths (Sarcoma 180 [2]; 20 mg/kg)?
A: 1

Q: What about the “Total Number of Regressions” value (Sarcoma 180 [2]; 20 mg/kg) of the same molecule?
A: 5

Q: What about the “% Inhibition” value ([3]; 10 mg/kg) of the same molecule?
A: 100%

Q: And the Deaths ([3]; 10 mg/kg)?
A: 0

Q: And the “% Inhibition” value ([3]; 20 mg/kg)?
A: 100%

Q: What about the Deaths ([3]; 20 mg/kg) of the same molecule?
A: 0

Q: And the “% Inhibition” value ([3]; 40 mg/kg)?
A: 100%

Q: What about the Deaths ([3]; 40 mg/kg) of the same molecule?
A: 0

Q: And the Deaths ([3]; 80 mg/kg)?
A: 0

Q: And the hydrolysis [4]?
A: negligible
